Experimental data: patent US9573891B2, “Complexes of agomelatine and sulphonic acids, a process for their preparation and pharmaceutical compositions containing them” (LES LABORATOIRES SERVIER, priority 2013, dated 2017)

Tests used:
[1] = Stability under denaturing conditions in incubators, determined by DSC over 2 months; type: physicochemical
Experimental: Samples of the compounds of Examples 1, 2 and 3 are placed in incubators under denaturing conditions and the stability is determined by DSC measurements over 2 months.

[2] = Solubility by HPLC (external standard method) compared with agomelatine of form II; type: physicochemical
Experimental: Using an external standard method, the compounds of Examples 1, 2 and 3 are tested by HPLC and compared with agomelatine of form II. The results are presented in Table 5 in the form of % increase in solubility relative to the solubility of agomelatine of form II: […]

With COc1ccc2cccc(CCNC(C)=O)c2c1.O=S(=O)(O)c1cccc2c(S(=O)(=O)O)cccc12 [Compound of Example 1, Agomelatine/1,5-Naphthalenedisulphonic Acid (2/1) Complex] the Stability ([1]; 25° C., 60% RH, open bottle) was “stable”, the Stability ([1]; 50° C., closed bottle) was “stable” and the Stability ([1]; 70° C., closed bottle) was “stable”. For the same compound, the “Solubility (increase versus agomelatine form II) in 0.1N HCl” value [2] was “+25%”, the “Solubility (increase versus agomelatine form II) in a buffer pH 6.8” value [2] was “+48%” and the “Solubility (increase versus agomelatine form II) in water” value [2] was “+18%”.

For COc1ccc2cccc(CCNC(C)=O)c2c1.O.O=S(=O)(O)c1cccc2c(S(=O)(=O)O)cccc12 [Compound of Example 2, Agomelatine/1,5-Naphthalenedisulphonic Acid (2/1) Monohydrate Complex], the Stability ([1]; 25° C., 60% RH, open bottle) was “stable”, the Stability ([1]; 50° C., closed bottle) was “stable” and the Stability ([1]; 70° C., closed bottle) was “stable”. The “Solubility (increase versus agomelatine form II) in 0.1N HCl” value [2] was “+75%”, the “Solubility (increase versus agomelatine form II) in a buffer pH 6.8” value [2] was “+57%” and the “Solubility (increase versus agomelatine form II) in water” value [2] was “+12%”.

With COc1ccc2cccc(CCNC(C)=O)c2c1.COc1ccc2cccc(CCNC(C)=O)c2c1.O=S(=O)(O)c1ccccc1 [Compound of Example 3, Agomelatine/Benzenesulphonic Acid (2/1) Complex] the Stability ([1]; 25° C., 60% RH, open bottle) was “stable”, the Stability ([1]; 50° C., closed bottle) was “stable” and the Stability ([1]; 70° C., closed bottle) was “stable”. The “Solubility (increase versus agomelatine form II) in 0.1N HCl” value [2] was “+32%”, the “Solubility (increase versus agomelatine form II) in a buffer pH 6.8” value [2] was “+46%” and the “Solubility (increase versus agomelatine form II) in water” value [2] was “+22%”.
